The text below walks through data of paper PMC9324933 (Chemistry (Weinheim an Der Bergstrasse, Germany), 2022).

The nature of series [1]: Redox potentials by cyclic voltammetry and differential pulse voltammetry. It is filed as physicochemical. To be noted: redox potential versus ferrocene/ferrocenium (FcH/FcH+); acetonitrile, 23 °C.
For a further series, the system named is A2780 cells. Put plainly: Viability of A2780 cells. To be noted: read-out: IC50 A2780 cells; human ovarian cancer cells, 48 h, MTT. The series is classed as cell-based.
Series [2] is described as follows: N-octanol/water partition coefficient. It is filed as physicochemical. To be noted: RP-TLC, MOPS pH 7.4/acetonitrile.
The next series has as its system BL‐2 cells. Put plainly: Viability of BL-2 cells. The series is classed as cell-based. To be noted: read-out: IC50 BL‐2 cells; human Burkitt's lymphoma cells, 48 h, MTT.

What is called IC50 is the point on the concentration scale where inhibition reaches its midpoint. What is called LogP is a log measure of how a compound divides between an organic and an aqueous phase. Compound `[Fe+2].c1cc[cH-]c1.c1cc[cH-]c1` [FcH, ferrocene] gave an E1/2 in series [1] of 0 mV. The 50% inhibitory concentration (IC50) with A2780 cells and with BL‐2 cells was greater than 50 µM in each case. Besides, in series [2], the LogP stood at 3.40.
